According to patent US20080300263A1, “Pyrazolo [1,5-a] pyrimidine compounds and pharmaceutical compositions containing them” (EiRx Therapeutics plc, priority 2005, published 2008):

What follows are compounds tested on C9M-TF1 cells (assay: Primary high-throughput screen, Alamar Blue, suspension cells). Conditions: Homo sapiens, 72 h, compound at 10 μM, first C9M column, read-out: percentage kill, C9M.
Type: cell-based
Protocol: (§1) Daughter Plates containing 10 μl of a […] solution of test compound selected from among the candidate compounds stored at […] are thawed at room temperature. A 10 μL volume of 0.1% DMSO in PBS is added to all wells of Column 12 and the wells in Row A-F of Column 1. A 10 μl volume of a pre-determined concentration of the P13-Kinase inhibitor LY294002 is added to wells in Row G and H of Column 1. A 90 μl volume of the appropriate cell culture medium is then added to each well and mixed by repeated aspiration/dispensing. The compounds are at a final test concentration of 10 μM.
(§2) Once the Daughter Plates have been prepared the media is removed from all wells of the cell culture plate using an 8-Channel Vacuum Aspirator. The contents of the Daughter Plates are then transferred to the appropriate wells of their relevant Test Plates and the Test Plates are incubated for 72 h at 37° C. and 5% CO2. At the end of this period Test Plates are assayed by Alamar Blue. A 10 μl volume of Alamar Blue is added to all wells of the Test Plate. The Test Plates are incubated for […] at 37° C. and 5% CO2 and finally read using the BioTek SYNERGY plate reader (Excitation 530125 nm-Emission 590135 nm). Percentage inhibition is determined using Microsoft Excel spreadsheet calculations.
(§3) Suspension cells are split 24 hours prior to drug treatment in order to bring the cultures into the log phase of growth. On the day of the assay the cells are plated directly into the Daughter Plates at the appropriate pre-determined seeding density (Table 1) in 90 μl volumes, the concentration of the test compounds thus being reduced to 10 μM. Cells are plated in all wells apart from those in Column 12 which contain 901 normal culture medium alone. The plates are incubated for 72 h at 37° C. and 5% CO2 after which time they are assayed by Alamar Blue as per the preceding example.
(§4) The figures appearing in the columns are the percentage kill achieved by that compound at 10 μM.

Structure (SMILES)	inhibition at 10 µM
COc1ccc(-c2cnn3c(NCc4ccccn4)ccnc23)cc1OC [Compound 2]	-2%
COc1ccc(-c2cnn3c(NCc4ccccn4)ccnc23)cc1 [Compound 3]	8%

Same assay, conditions: Homo sapiens, 72 h, compound at 10 μM, second C9M column, read-out: percentage kill, C9M

Structure (SMILES)	inhibition at 10 µM
COc1ccc(-c2cnn3c(NCc4ccccn4)ccnc23)cc1OC [Compound 2]	0%
COc1ccc(-c2cnn3c(NCc4ccccn4)ccnc23)cc1 [Compound 3]	-12%

Each compound was assayed on FRAT2 overexpresing TF1 (FRAT2-C9M-TF1 cells) in the same assay as above. Conditions: Homo sapiens; compound at 10 μM, 72 h; minus GMCSF; read-out: percentage kill, FRAT2−.
Type: cell-based
Protocol: as §1, §2, §3, §4

Structure (SMILES)	inhibition at 10 µM
COc1ccc(-c2cnn3c(NCc4ccccn4)ccnc23)cc1OC [Compound 2]	57%
COc1ccc(-c2cnn3c(NCc4ccccn4)ccnc23)cc1 [Compound 3]	76%

Same assay, conditions: Homo sapiens; compound at 10 μM, 72 h; plus GMCSF; read-out: percentage kill, FRAT2+

Structure (SMILES)	inhibition at 10 µM
COc1ccc(-c2cnn3c(NCc4ccccn4)ccnc23)cc1OC [Compound 2]	33%
COc1ccc(-c2cnn3c(NCc4ccccn4)ccnc23)cc1 [Compound 3]	40%

What follows are compounds tested on C9M-TF1 cells (assay: EC50 titration, Alamar Blue, suspension cells). Conditions: Homo sapiens, 72 h.
Type: cell-based
Protocol: (§5) On the day of the assay compounds are used to prepare dilution series on Titration Plates which are plated at ten times their final screening concentration in 10 μl aliquots.
(§6) Suspension cells are split 24 hours prior to drug treatment in order to bring the cultures into the log phase of growth. On the day of the assay the cells are plated directly into the Titration Plates at the appropriate pre-determined seeding density (Table 1) in 90 μl volumes thus reducing the concentration of the compounds to their final test concentration. The plates are incubated for 72 hours at 37° C. and 5% CO2 after which time they are assayed by Alamar Blue.
(§7) The EC50 values are calculated using the values obtained from the Alamar Blue readout which are converted into a “Percentage of the Untreated Control” and using Graph Pad Prism these values are plotted against the logarithm of the test concentration. Using a non-linear regression analysis a sigmoidal dose-response curve is generated from which the EC50 is determined.

Structure (SMILES)	EC50
COc1ccc(-c2cnn3c(NCc4ccccn4)ccnc23)cc1OC [Compound 2]	24 µM
COc1ccc(-c2cnn3c(NCc4ccccn4)ccnc23)cc1 [Compound 3]	5.62 µM

What follows are compounds tested on LoVo (assay: EC50 titration, Alamar Blue). Conditions: Homo sapiens.
Type: cell-based
Protocol: as §5
(§8) For adherent cell lines plated 24 hours previously, a 90 μl volume of the appropriate cell culture medium is then added to each well of the Titration Plates and mixed by repeated aspiration/dispensing, thus taking the compounds to their final test concentration. Once the Titration Plates have been prepared the media is removed from all wells of the cell culture plate and the contents of the Titration Plates are then transferred to the appropriate wells of their relevant Test Plates and incubated for 72 h at 37° C. and 5% CO2 after which time they are assayed by Alamar Blue. Using a combination of Microsoft Excel and Graph Pad Prism, EC50s are determined.
as §7

EC50	Structure (SMILES)
2.2 µM	COc1ccc(-c2cnn3c(NCc4ccccn4)ccnc23)cc1OC [Compound 2]
2.2 µM	COc1ccc(-c2cnn3c(NCc4ccccn4)ccnc23)cc1 [Compound 3]

What follows are compounds tested on HCT116 (assay: EC50 titration, Alamar Blue). Conditions: Homo sapiens, HCT-116.
Type: cell-based
Protocol: as §5, §8, §7

EC50	Structure (SMILES)
3 µM	COc1ccc(-c2cnn3c(NCc4ccccn4)ccnc23)cc1OC [Compound 2]
2.2 µM	COc1ccc(-c2cnn3c(NCc4ccccn4)ccnc23)cc1 [Compound 3]

What follows are compounds tested on FRAT2-C9M-TF1 cells (assay: EC50 titration, Alamar Blue, suspension cells). Conditions: Homo sapiens; 72 h, Alamar Blue; absence of growth factor.
Type: cell-based, Human
Protocol: as §5, §6, §7

Structure (SMILES)	EC50
COc1ccc(-c2cnn3c(NCc4ccccn4)ccnc23)cc1OC [Compound 2]	6.31 µM
COc1ccc(-c2cnn3c(NCc4ccccn4)ccnc23)cc1 [Compound 3]	4.17 µM

Same assay, conditions: Homo sapiens; 72 h, Alamar Blue; presence of growth factor

Structure (SMILES)	EC50
COc1ccc(-c2cnn3c(NCc4ccccn4)ccnc23)cc1OC [Compound 2]	7.08 µM
COc1ccc(-c2cnn3c(NCc4ccccn4)ccnc23)cc1 [Compound 3]	2.24 µM

The compounds below were run on CACO2 Colon adenocarcinoma (assay: Primary high-throughput screen, Alamar Blue, adherent cells). Conditions: Homo sapiens, Caco-2; compound at 10 μM, 72 h; read-out: percentage kill, CAC02.
Type: cell-based
Protocol: (§9) Adherent cells are plated at a pre-determined seeding density (Table 1) in flat-bottom 96 well plates 24 hours prior to drug treatment. The cell lines are plated in 100 μl volumes in each well. Cells are plated in all wells apart from those in Column 12 which contain 100 μL normal culture medium alone. These plates will be known as the Test Plates. The Test Plates are labelled with a Daughter Plate ID.
as §1, §2, §4

Structure (SMILES)	inhibition at 10 µM
COc1ccc(-c2cnn3c(NCc4ccccn4)ccnc23)cc1OC [Compound 2]	66%
COc1ccc(-c2cnn3c(NCc4ccccn4)ccnc23)cc1 [Compound 3]	58%

What follows are compounds tested on SW480 Colon adenocarcinoma (Dukes' type B) in the same assay as above. Conditions: Homo sapiens, compound at 10 μM, 72 h, read-out: percentage kill, SW480.
Type: cell-based
Protocol: as §9, §1, §2, §4

Structure (SMILES)	inhibition at 10 µM
COc1ccc(-c2cnn3c(NCc4ccccn4)ccnc23)cc1OC [Compound 2]	68%
COc1ccc(-c2cnn3c(NCc4ccccn4)ccnc23)cc1 [Compound 3]	64%

The compounds below were run on A549 Non Small Cell Lung Carcinoma in the same assay as above. Conditions: Homo sapiens, compound at 10 μM, 72 h, read-out: percentage kill, A549.
Type: cell-based
Protocol: as §9, §1, §2, §4

Structure (SMILES)	inhibition at 10 µM
COc1ccc(-c2cnn3c(NCc4ccccn4)ccnc23)cc1OC [Compound 2]	18%
COc1ccc(-c2cnn3c(NCc4ccccn4)ccnc23)cc1 [Compound 3]	13%

The compounds below were run on LS123 Colon adenocarcinoma (Dukes' type B) in the same assay as above. Conditions: Homo sapiens, LS-123; compound at 10 μM, 72 h; read-out: percentage kill, LS123.
Type: cell-based
Protocol: as §9, §1, §2, §4

Structure (SMILES)	inhibition at 10 µM
COc1ccc(-c2cnn3c(NCc4ccccn4)ccnc23)cc1OC [Compound 2]	91%
COc1ccc(-c2cnn3c(NCc4ccccn4)ccnc23)cc1 [Compound 3]	95%

Each compound was assayed on PC3 Prostate carcinoma (bone metastasis) in the same assay as above. Conditions: compound at 10 μM, 72 h; read-out: percentage kill, PC3.
Type: cell-based
Protocol: as §9, §1, §2, §4

Structure (SMILES)	inhibition at 10 µM
COc1ccc(-c2cnn3c(NCc4ccccn4)ccnc23)cc1OC [Compound 2]	4%
COc1ccc(-c2cnn3c(NCc4ccccn4)ccnc23)cc1 [Compound 3]	-20%

Each compound was assayed on MCF7 Mammary gland adenocarcinoma in the same assay as above. Conditions: Homo sapiens, compound at 10 μM, 72 h, read-out: percentage kill, MCF7.
Type: cell-based
Protocol: as §9, §1, §2, §4

Structure (SMILES)	inhibition at 10 µM
COc1ccc(-c2cnn3c(NCc4ccccn4)ccnc23)cc1OC [Compound 2]	68%
COc1ccc(-c2cnn3c(NCc4ccccn4)ccnc23)cc1 [Compound 3]	85%

These compounds were tested on HT29 Colorectal adenocarcinoma in the same assay as above. Conditions: Homo sapiens, HT-29; compound at 10 μM, 72 h; read-out: percentage kill, HT29.
Type: cell-based
Protocol: as §9, §1, §2, §4

Structure (SMILES)	inhibition at 10 µM
COc1ccc(-c2cnn3c(NCc4ccccn4)ccnc23)cc1OC [Compound 2]	60%
COc1ccc(-c2cnn3c(NCc4ccccn4)ccnc23)cc1 [Compound 3]	80%

What follows are compounds tested on NCI ADR RES Breast adenocarcinoma (pleural effusion) in the same assay as above. Conditions: Homo sapiens, compound at 10 μM, 72 h, read-out: percentage kill, NCI ADR RES.
Type: cell-based
Protocol: as §9, §1, §2, §4

Structure (SMILES)	inhibition at 10 µM
COc1ccc(-c2cnn3c(NCc4ccccn4)ccnc23)cc1OC [Compound 2]	73%
COc1ccc(-c2cnn3c(NCc4ccccn4)ccnc23)cc1 [Compound 3]	66%

The compounds below were run on U1810 Non Small Cell Lung Carcinoma in the same assay as above. Conditions: U-1810; compound at 10 μM, 72 h; read-out: percentage kill, U1810.
Type: cell-based
Protocol: as §9, §1, §2, §4

Structure (SMILES)	inhibition at 10 µM
COc1ccc(-c2cnn3c(NCc4ccccn4)ccnc23)cc1OC [Compound 2]	23%
COc1ccc(-c2cnn3c(NCc4ccccn4)ccnc23)cc1 [Compound 3]	15%

The compounds below were run on non-transformed breast cell line MCF10A (assay: EC50 titration, Alamar Blue, adherent cells). Conditions: Homo sapiens, MCF-10A, 72 h.
Type: cell-based
Protocol: as §5, §8, §7

Structure (SMILES)	EC50
COc1ccc(-c2cnn3c(NCc4ccccn4)ccnc23)cc1OC [Compound 2]	20.4 µM
COc1ccc(-c2cnn3c(NCc4ccccn4)ccnc23)cc1 [Compound 3]	7.24 µM

What follows are compounds tested on breast cancer cell line MCF7 (assay: EC50 titration, Alamar Blue, adherent cells). Conditions: Homo sapiens, 72 h.
Type: cell-based
Protocol: as §5, §8, §7

EC50	Structure (SMILES)
2.24 µM	COc1ccc(-c2cnn3c(NCc4ccccn4)ccnc23)cc1OC [Compound 2]
0.83 µM	COc1ccc(-c2cnn3c(NCc4ccccn4)ccnc23)cc1 [Compound 3]

The compounds below were run on colon cancer cell line HT29 (assay: EC50 titration, Alamar Blue, adherent cells). Conditions: Homo sapiens, HT-29, 72 h.
Type: cell-based
Protocol: as §5, §8, §7

EC50	Structure (SMILES)
4.37 µM	COc1ccc(-c2cnn3c(NCc4ccccn4)ccnc23)cc1OC [Compound 2]
0.74 µM	COc1ccc(-c2cnn3c(NCc4ccccn4)ccnc23)cc1 [Compound 3]
